Values of other authors, collected in patent publication US8047146B2, “Subsurface soil injection apparatus and method” (priority 2001, dated 2011).
≈ marks a conversion by molar mass, not a printed value.

How the values were obtained:
[1] = rapidly photodegrades in light

## CI [Iodomethane, iodomethane]
other
  solubility in water: 14.2 mg/mL (≈ 100 mM)
[1]
  lifetime in the atmosphere: 1.5 to 4 days
